Test results from patent US8093226B2, “Cytostatic 7-deazapurine nucleosides” (Institute of Organic Chemistry and Biochemistry of the …, priority 2008, dated 2012).

How the values were obtained:
Assay type in all cases: cell-based
A549 = experiment: Test A: Cytostatic Cell Culture Assay (GI50), A549; details: Homo sapiens, 120 h; A549 cells, 5 days, SRB; read-out: G150 Lung A549
From the text: (§1) Test A: Cytostatic Cell Culture Assay (GI50)
(§2) This assay is based on quantification of cell counts by a calorimetric detection of the cell associated proteins. The assay relies on the ability of sulforhodamine B (SRB) to bind to protein components of cells that have been fixed to tissue-culture plates by trichloroacetic acid (TCA). SRB is a bright-pink aminoxanthene dye with two sulfonic groups that bind to basic amino-acid residues under mild acidic conditions, and dissociate under basic conditions. As the binding of SRB is stoichiometric, the amount of dye extracted from stained cells is directly proportional to the cell mass.
(§3) Cell lines: All cell lines are obtained from ATCC (Manassas, Va.). Cultivation media containing Glutanax, and trypsin are purchased from Invitrogen (Carlsbad, Calif.). Doxorubicin, Clofarabine, TCA and SRB are from Sigma-Aldrich (St. Louis, Mo.). Gemcitabine is obtained from Moravek Biochemicals (Brea, Calif.)
(§4) • 1. Trypsinize the sub-confluent cells, count them, and adjust the cell concentrations according to the cell counts listed in Table 1. • 2. Distribute the cells into the 96-well plates in 150 μL of media. Incubate the plates overnight in humidified CO2 incubator at 37° C. • 3. Fix one plate of each cell line with TCA. Discard the cultivation media from the plates by flicking them gently and add 100 μL cold 10% (vol/vol) TCA to each well. Incubate the plates at 4 degree refrigerator for 1 hour. Discard TCA from the plates by flicking them gently. Rinse plates four times in a washing basin containing tap water. Store the plates at room temperature. These plates represent cell counts on day zero. • 4. Prepare a set of medium solutions containing various concentrations of tested compounds by making 5-fold serial dilutions in 96-well plate. Add 50 μL of the diluted compounds per well. Include controls with untreated cells and cells treated with doxorubicin, clofarabine and gemcitabine. • 5. Incubate the plates for 5 days at 37° C. • 6. Fix the plates with TCA. Discard the cultivation media from the plates by flicking them gently and add 100 μL cold 10% (vol/vol) TCA to each well. Incubate the plates at 4 degree refrigerator for 1 hour. Discard TCA from the plates by flicking them gently. Rinse plates four times in a washing basin containing tap water. • 7. Remove excess water by tapping the plates face down, gently on a paper towel. Allow the plates to air-dry at room temperature. • 8. Add 100 μL of 0.057% SRB solution in 1% (vol/vol) acetic acid to each well of the plates fixed with TCA on day zero and five. Leave at room temperature for 30 minutes. • 9. Flick the plates gently to discard SRB. Rinse the plates four times with 1% (vol/vol) Acetic Acid. • 10. Store the plates at 370 incubator to facilitate faster drying. • 11. Once the plates are completely dry, add 200 μL of 10 mM Tris base solution (pH 10.5) to each well. Leave at room temperature for 30 minutes for SRB to solubilize. • 12. Measure the OD at 500 nm in a microplate reader. • 13. Calculate the percentage of cell-growth inhibition using the next formula: % of control cell growth=100×(ODsample−mean ODday0)/(ODneg control−mean ODday0)
(§5) For GI50 determination, plot a dose-response curves between the compound concentration and percent of growth inhibition. GI50 values can be derived by fitting dose-response curves using sigmoidal dose response equation.

NCIH23 = experiment: Test A: Cytostatic Cell Culture Assay (GI50), NCIH23; details: Homo sapiens, NCI-H23, 120 h; NCIH23 cells, 5 days, SRB; read-out: G150 Lung NCIH23
From the text: as §1, §2, §3, §4, §5

Du145 = experiment: Test A: Cytostatic Cell Culture Assay (GI50), Du145; details: Homo sapiens, DU-145, 120 h; Du145 cells, 5 days, SRB; read-out: G150 Prostate Du145
From the text: as §1, §2, §3, §4, §5

PC3 = experiment: Test A: Cytostatic Cell Culture Assay (GI50), PC3; details: Homo sapiens, PC-3, 120 h; PC3 cells, 5 days, SRB; read-out: G150 Prostate PC3
From the text: as §1, §2, §3, §4, §5

HCT116 = experiment: Test A: Cytostatic Cell Culture Assay (GI50), HCT116; details: Homo sapiens, HCT-116, 120 h; HCT116 cells, 5 days, SRB; read-out: G150 Colon HCT116
From the text: as §1, §2, §3, §4, §5

HCT15 = experiment: Test A: Cytostatic Cell Culture Assay (GI50), HCT15; details: Homo sapiens, HCT-15, 120 h; HCT15 cells, 5 days, SRB; read-out: G150 Colon HCT15
From the text: as §1, §2, §3, §4, §5

Hs578 = experiment: Test A: Cytostatic Cell Culture Assay (GI50), Hs578; details: 120 h; Hs578 cells, 5 days, SRB; read-out: G150 Breast Hs578
From the text: as §1, §2, §3, §4, §5

[1] = test system: Human T-lymphoid cell line CCRF-CEM; experiment: Cell cycle distribution in human T-lymphoid cells (propidium iodide, flow cytometry); details: 72 hours; for Relative change in cell cycle phase compared to untreated control, G1 / Relative change in cell cycle phase compared to untreated control, G2/M / Relative change in cell cycle phase compared to untreated control, S: concentration corresponding to CC50, untreated control = 1
Protocol: Effects of the Compounds on Cell Cycle Distribution in Human T-Lymphoid Cells
Human T-lymphoid cell line CCRF-CEM is treated with tested compounds for 72 hours at the concentration corresponding to the CC50 value of each compound. At the end of incubation, cells are harvested by centrifugation, washed, and fixed in ethanol. Fixed cells are stained with propidium iodide in a buffer containing RNaseA and the cell cycle distribution analysis is performed by flow cytometry using BD FACSAria instrument. Data are processed using BD FACSDiva software v4.1 and presented as a percentage of analyzed cell population in Phase G1, S, and G2/M. Cell cycle distribution is determined in parallel for untreated and treated cells and relative change for each cell cycle phase is calculated.
The data represent changes in the frequency of each cell cycle phase in treated cells relative to untreated control (the relative fraction of each analyzed cell cycle phase in untreated control has the value of 1).
Primary data are shown in Table 3, with values representing the percentage distribution of each cell cycle phase in the total cell population.

IC50 (A549) [µM] | IC50 (Du145) [µM] | IC50 (PC3) [µM] | IC50 (HCT116) [µM] | IC50 (HCT15) [µM] | SMILES | IC50 (NCIH23) [µM] | IC50 (Hs578) [µM] | G1 % ([1]; 0.3 μM, replicate 1) [%] | G2/M % ([1]; 0.3 μM, replicate 1) [%] | S % ([1]; 0.3 μM, replicate 1) [%] | G1 % ([1]; 0.3 μM, replicate 2) [%] | G2/M % ([1]; 0.3 μM, replicate 2) [%] | S % ([1]; 0.3 μM, replicate 2) [%] | Relative change in cell cycle phase compared to untreated control, G1 [1] | Relative change in cell cycle phase compared to untreated control, G2/M [1] | Relative change in cell cycle phase compared to untreated control, S [1] | further results
0.088 | 0.007 | 0.091 | 0.078 | 0.02 | OC[C@H]1O[C@@H](n2ccc3c(-c4ccco4)ncnc32)[C@H](O)[C@@H]1O [Example 5, 4-(Furan-2-yl)-7-(β-D-ribofuranosyl)-7H-pyrrolo[2,3-d]pyrimidine] | 4.2 | 0.049 | 26.14 | 11.89 | 61.98 | 23.61 | 16.41 | 59.99 | 0.57 | 1.19 | 1.38 | 
0.045 | 0.009 | 0.067 | 0.049 | 0.078 | OC[C@H]1O[C@@H](n2ccc3c(-c4cccs4)ncnc32)[C@H](O)[C@@H]1O [Example 6, 7-(β-D-Ribofuranosyl)-4-(thiophen-2-yl)-7H-pyrrolo[2,3-d]pyrimidine] | 4.1 | 0.101 | 30.82 | 14.53 | 54.65 | 14.66 | 22.05 | 63.29 | 0.52 | 1.54 | 1.34 | 
0.109 | 0.005 | 0.075 | 0.039 | 0.057 | OC[C@H]1O[C@@H](n2cc(F)c3c(-c4ccco4)ncnc32)[C@H](O)[C@@H]1O [Example 20, 5-Fluoro-4-(furan-2-yl)-7-(β-D-ribofuranosyl)-7H-pyrrolo[2,3-d]pyrimidine] | 4.3 | 0.175 |  |  |  |  |  |  | 0.61 | 2.00 | 1.06 | G1 % ([1]; 1.5 μM, replicate 1): 22.32%; G2/M % ([1]; 1.5 μM, replicate 1): 30.19%; S % ([1]; 1.5 μM, replicate 1): 47.49%; G1 % ([1]; 1.5 μM, replicate 2): 28.81%; G2/M % ([1]; 1.5 μM, replicate 2): 25.24%; S % ([1]; 1.5 μM, replicate 2): 45.95%
0.061 | 0.009 | 0.083 | 0.009 | 0.018 | OC[C@H]1O[C@@H](n2cc(F)c3c(-c4cccs4)ncnc32)[C@H](O)[C@@H]1O [Example 21] | 4.7 | 0.132 | 30.83 | 22.80 | 46.37 | 32.73 | 23.53 | 43.74 | 0.74 | 1.38 | 1.12 | 
